Measured values reported in patent US20240252450A1, “TREATMENT FOR EPILEPTIC SEIZURES” (priority 2021, published 2024).

Tested on: epileptic seizures
Assay: Clinical treatment of the inventor's child with mixed epileptic seizure types (case report)
Type: in vivo, human
Details: for effect on the child's epileptic seizures: onset, hundreds of seizures a day, substance given without cannabis extract
Description: The inventor has a child, who, experienced an abrupt onset of hundreds of absence seizures a day that developed into mixed epileptic seizure types, including absence, focal, atonic, myoclonic-atonic, tonic, and eventually a 10-hour status epilepticus seizure. The Inventor was told their child would die in their sleep from SUDEP and no medication will be able to treat them. […] The child is […] now and has developed normally.

Row | SMILES | side effects (child with intractable seizures, Keppra without cannabis extract) | effect on the child's epileptic seizures
1 | CC[C@@H](C(N)=O)N1CCCC1=O [Keppra, Levetiracetam] | side effects of nausea and “Keppra rage” | reduced the frequency of the seizures but could not fully control them
2 | C=C(C)[C@@H]1CCC(C)=C[C@H]1c1c(O)cc(CCCCC)cc1O [CBD, cannabidiol] | – | neither did CBD alone
